Results: the NIST ThermoML archive (doi:10.1021/je5007532)
Numbers after ± are expanded uncertainties.

Experiment: xn = mol fraction of the nth substance listed
Conditions: for viscosity: 100 kPa, Falling or rolling sphere viscometry; for viscosity / speed of sound / mass density: Liquid; for speed of sound / mass density: 101 kPa; for speed of sound: Sing-around technique in a fixed-path interferometer; for mass density: Vibrating tube method; for surface tension liquid-gas: 294.4 K, Pendant drop shape

CC(C)CC(C)(C)C [2,2,4-trimethylpentane] + CCCCCCC
Conditions | mass density [kg/m3] | speed of sound [m/s] | viscosity [mPa·s]
293.15 K, x1 = 0.1 | 684.83 ± 0.19 | 1146.5 ± 0.8 | 0.416 ± 0.004
293.15 K, x1 = 0.2001 | 685.71 ± 0.16 | 1141.7 ± 0.8 | 0.423 ± 0.004
293.15 K, x1 = 0.2999 | 686.59 ± 0.17 | 1136.6 ± 0.8 | 0.43 ± 0.004
293.15 K, x1 = 0.4001 | 687.45 ± 0.17 | 1131.6 ± 0.8 | 0.438 ± 0.004
293.15 K, x1 = 0.5001 | 688.28 ± 0.17 | 1127 ± 0.8 | 0.447 ± 0.004
293.15 K, x1 = 0.6 | 689.06 ± 0.17 | 1122 ± 0.8 | 0.456 ± 0.004
293.15 K, x1 = 0.6999 | 689.77 ± 0.17 | 1117.2 ± 0.8 | 0.466 ± 0.004
293.15 K, x1 = 0.8 | 690.5 ± 0.17 | 1112.5 ± 0.8 | 0.477 ± 0.004
293.15 K, x1 = 0.9 | 691.17 ± 0.17 | 1107.7 ± 0.8 | 0.488 ± 0.004
293.15 K, x1 = 1 | 691.84 ± 0.17 | 1103.2 ± 0.8 | 0.501 ± 0.004
298.15 K, x1 = 0.1 | 680.61 ± 0.19 | 1125.3 ± 0.8 | 0.394 ± 0.004
298.15 K, x1 = 0.2001 | 681.5 ± 0.17 | 1120.5 ± 0.8 | 0.4 ± 0.004
298.15 K, x1 = 0.2999 | 682.4 ± 0.17 | 1115.5 ± 0.8 | 0.407 ± 0.004
298.15 K, x1 = 0.4001 | 683.27 ± 0.17 | 1110.5 ± 0.8 | 0.415 ± 0.004
298.15 K, x1 = 0.5001 | 684.12 ± 0.17 | 1105.9 ± 0.8 | 0.423 ± 0.004
298.15 K, x1 = 0.6 | 684.91 ± 0.17 | 1101 ± 0.8 | 0.432 ± 0.004
298.15 K, x1 = 0.6999 | 685.63 ± 0.17 | 1096.2 ± 0.8 | 0.441 ± 0.004
298.15 K, x1 = 0.8 | 686.36 ± 0.17 | 1091.6 ± 0.8 | 0.451 ± 0.004
298.15 K, x1 = 0.9 | 687.05 ± 0.17 | 1086.7 ± 0.8 | 0.462 ± 0.004
298.15 K, x1 = 1 | 687.7 ± 0.17 | 1082 ± 0.8 | 0.473 ± 0.004
303.15 K, x1 = 0.1 | 676.36 ± 0.2 | 1103.9 ± 0.7 | 0.373 ± 0.003
303.15 K, x1 = 0.2001 | 677.27 ± 0.17 | 1099.2 ± 0.8 | 0.379 ± 0.003
303.15 K, x1 = 0.2999 | 678.18 ± 0.17 | 1094.2 ± 0.8 | 0.386 ± 0.004
303.15 K, x1 = 0.4001 | 679.07 ± 0.17 | 1089.3 ± 0.8 | 0.393 ± 0.004
303.15 K, x1 = 0.5001 | 679.93 ± 0.17 | 1084.7 ± 0.8 | 0.4 ± 0.004
303.15 K, x1 = 0.6 | 680.73 ± 0.17 | 1079.9 ± 0.8 | 0.408 ± 0.004
303.15 K, x1 = 0.6999 | 681.46 ± 0.17 | 1075.1 ± 0.8 | 0.417 ± 0.004
303.15 K, x1 = 0.8 | 682.2 ± 0.17 | 1070.5 ± 0.8 | 0.426 ± 0.004
303.15 K, x1 = 0.9 | 682.89 ± 0.17 | 1065.8 ± 0.8 | 0.436 ± 0.004
303.15 K, x1 = 1 | 683.59 ± 0.17 | 1061.4 ± 0.8 | 0.447 ± 0.004
308.15 K, x1 = 0.1 | 672.09 ± 0.2 | 1082.7 ± 0.7 | 0.355 ± 0.003
308.15 K, x1 = 0.2001 | 673.01 ± 0.17 | 1078 ± 0.7 | 0.36 ± 0.003
308.15 K, x1 = 0.2999 | 673.93 ± 0.17 | 1073.1 ± 0.8 | 0.366 ± 0.003
308.15 K, x1 = 0.4001 | 674.83 ± 0.17 | 1068.2 ± 0.8 | 0.373 ± 0.003
308.15 K, x1 = 0.5001 | 675.71 ± 0.17 | 1063.7 ± 0.8 | 0.38 ± 0.003
308.15 K, x1 = 0.6 | 676.52 ± 0.17 | 1058.9 ± 0.8 | 0.387 ± 0.004
308.15 K, x1 = 0.6999 | 677.26 ± 0.17 | 1054.2 ± 0.8 | 0.396 ± 0.004
308.15 K, x1 = 0.8 | 678.02 ± 0.17 | 1049.7 ± 0.8 | 0.404 ± 0.004
308.15 K, x1 = 0.9 | 678.72 ± 0.17 | 1045 ± 0.8 | 0.413 ± 0.004
308.15 K, x1 = 1 | 679.4 ± 0.17 | 1040.4 ± 0.8 | 0.423 ± 0.004
313.15 K, x1 = 0.1 | 667.78 ± 0.2 | 1061.7 ± 0.7 | –
313.15 K, x1 = 0.2001 | 668.71 ± 0.17 | 1057 ± 0.7 | –
313.15 K, x1 = 0.2999 | 669.65 ± 0.17 | 1052.2 ± 0.7 | –
313.15 K, x1 = 0.4001 | 670.57 ± 0.17 | 1047.3 ± 0.8 | –
313.15 K, x1 = 0.5001 | 671.46 ± 0.17 | 1042.8 ± 0.8 | –
313.15 K, x1 = 0.6 | 672.28 ± 0.17 | 1038.1 ± 0.8 | –
313.15 K, x1 = 0.6999 | 673.03 ± 0.17 | 1033.5 ± 0.8 | –
313.15 K, x1 = 0.8 | 673.8 ± 0.17 | 1029 ± 0.8 | –
313.15 K, x1 = 0.9 | 674.52 ± 0.18 | 1024.3 ± 0.8 | –
313.15 K, x1 = 1 | 675.23 ± 0.17 | 1020 ± 0.8 | –
318.15 K, x1 = 0.1 | 663.44 ± 0.2 | 1040.7 ± 0.7 | 0.32 ± 0.003
318.15 K, x1 = 0.2001 | 664.39 ± 0.17 | 1036.1 ± 0.7 | 0.325 ± 0.003
318.15 K, x1 = 0.2999 | 665.34 ± 0.17 | 1031.3 ± 0.7 | 0.33 ± 0.003
318.15 K, x1 = 0.4001 | 666.28 ± 0.17 | 1026.5 ± 0.8 | 0.336 ± 0.003
318.15 K, x1 = 0.5001 | 667.18 ± 0.17 | 1022.1 ± 0.8 | 0.343 ± 0.003
318.15 K, x1 = 0.6 | 668.02 ± 0.17 | 1017.4 ± 0.8 | 0.349 ± 0.003
318.15 K, x1 = 0.6999 | 668.78 ± 0.17 | 1012.8 ± 0.8 | 0.356 ± 0.003
318.15 K, x1 = 0.8 | 669.55 ± 0.18 | 1008.4 ± 0.8 | 0.363 ± 0.003
318.15 K, x1 = 0.9 | 670.28 ± 0.18 | 1003.8 ± 0.8 | 0.372 ± 0.003
318.15 K, x1 = 1 | 670.98 ± 0.17 | 999.3 ± 0.8 | 0.38 ± 0.004
323.15 K, x1 = 0.1 | 659.07 ± 0.2 | 1019.8 ± 0.7 | 0.305 ± 0.003
323.15 K, x1 = 0.2001 | 660.04 ± 0.17 | 1015.2 ± 0.7 | 0.309 ± 0.003
323.15 K, x1 = 0.2999 | 661 ± 0.17 | 1010.5 ± 0.7 | 0.314 ± 0.003
323.15 K, x1 = 0.4001 | 661.95 ± 0.17 | 1005.7 ± 0.7 | 0.32 ± 0.003
323.15 K, x1 = 0.5001 | 662.86 ± 0.17 | 1001.4 ± 0.8 | 0.326 ± 0.003
323.15 K, x1 = 0.6 | 663.71 ± 0.17 | 996.8 ± 0.8 | 0.332 ± 0.003
323.15 K, x1 = 0.6999 | 664.49 ± 0.18 | 992.3 ± 0.8 | 0.338 ± 0.003
323.15 K, x1 = 0.8 | 665.28 ± 0.18 | 987.9 ± 0.8 | 0.345 ± 0.003
323.15 K, x1 = 0.9 | 666.02 ± 0.18 | 983.3 ± 0.8 | 0.353 ± 0.003
323.15 K, x1 = 1 | 666.75 ± 0.18 | 979.2 ± 0.8 | 0.361 ± 0.003
328.15 K, x1 = 0.1 | 654.65 ± 0.2 | 999 ± 0.7 | 0.291 ± 0.003
328.15 K, x1 = 0.2001 | 655.64 ± 0.17 | 994.4 ± 0.7 | 0.295 ± 0.003
328.15 K, x1 = 0.2999 | 656.61 ± 0.17 | 989.8 ± 0.7 | 0.3 ± 0.003
328.15 K, x1 = 0.4001 | 657.59 ± 0.17 | 985.1 ± 0.7 | 0.305 ± 0.003
328.15 K, x1 = 0.5001 | 658.52 ± 0.18 | 980.8 ± 0.7 | 0.311 ± 0.003
328.15 K, x1 = 0.6 | 659.37 ± 0.18 | 976.3 ± 0.8 | 0.316 ± 0.003
328.15 K, x1 = 0.6999 | 660.16 ± 0.18 | 971.8 ± 0.8 | 0.323 ± 0.003
328.15 K, x1 = 0.8 | 660.98 ± 0.18 | 967.4 ± 0.8 | 0.329 ± 0.003
328.15 K, x1 = 0.9 | 661.73 ± 0.18 | 963 ± 0.8 | 0.335 ± 0.003
328.15 K, x1 = 1 | 662.44 ± 0.18 | 958.7 ± 0.8 | 0.343 ± 0.003
333.15 K, x1 = 0.1 | 650.21 ± 0.2 | 978.3 ± 0.7 | 0.276 ± 0.005
333.15 K, x1 = 0.2001 | 651.22 ± 0.18 | 973.9 ± 0.7 | 0.28 ± 0.005
333.15 K, x1 = 0.2999 | 652.2 ± 0.18 | 969.2 ± 0.7 | 0.286 ± 0.005
333.15 K, x1 = 0.4001 | 653.19 ± 0.18 | 964.6 ± 0.7 | 0.29 ± 0.005
333.15 K, x1 = 0.5001 | 654.14 ± 0.18 | 960.4 ± 0.7 | 0.294 ± 0.005
333.15 K, x1 = 0.6 | 655.01 ± 0.18 | 955.8 ± 0.8 | 0.3 ± 0.005
333.15 K, x1 = 0.6999 | 655.81 ± 0.18 | 951.6 ± 0.8 | 0.306 ± 0.005
333.15 K, x1 = 0.8 | 656.64 ± 0.18 | 947.3 ± 0.8 | 0.313 ± 0.005
333.15 K, x1 = 0.9 | 657.4 ± 0.18 | 942.9 ± 0.8 | 0.319 ± 0.005
333.15 K, x1 = 1 | 658.16 ± 0.18 | 938.6 ± 0.8 | 0.326 ± 0.005
338.15 K, x1 = 0.1 | 645.76 ± 0.2 | 957.8 ± 0.7 | –
338.15 K, x1 = 0.2001 | 646.75 ± 0.18 | 953.3 ± 0.7 | –
338.15 K, x1 = 0.2999 | 647.77 ± 0.18 | 948.7 ± 0.7 | –
338.15 K, x1 = 0.4001 | 648.75 ± 0.18 | 944.3 ± 0.7 | –
338.15 K, x1 = 0.5001 | 649.71 ± 0.18 | 940.1 ± 0.7 | –
338.15 K, x1 = 0.6 | 650.6 ± 0.18 | 935.8 ± 0.7 | –
338.15 K, x1 = 0.6999 | 651.41 ± 0.18 | 931.3 ± 0.8 | –
338.15 K, x1 = 0.8 | 652.29 ± 0.18 | 927.2 ± 0.8 | –
338.15 K, x1 = 0.9 | 653.03 ± 0.18 | 922.9 ± 0.8 | –
338.15 K, x1 = 1 | 653.8 ± 0.18 | 918.7 ± 0.8 | –
343.15 K, x1 = 1 | 649.4 ± 0.18 | 899 ± 0.6 | –

Conditions | surface tension liquid-gas [mN/m]
x1 = 0.1 | 19.9 ± 0.3
x1 = 0.2001 | 19.7 ± 0.3
x1 = 0.2999 | 19.5 ± 0.3
x1 = 0.4001 | 19.4 ± 0.3
x1 = 0.5001 | 19.2 ± 0.3
x1 = 0.6999 | 19 ± 0.3
x1 = 0.8 | 18.9 ± 0.3
x1 = 1 | 18.7 ± 0.4
